Data set [1] addresses His-His-(EK)-hsBCLXL(2-197)[N197C] (Homo sapiens (Human), UniProt Q07817, N197C). As to the kind of experiment: Fluorescence quenching assay. The note with it: 1 nM Cy5-labelled protein, 400 nM PUMA peptide, 2 hours at 23° C.; KI determined from IC50. The class given is binding. In short, it runs like this:
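Cy5-labelled BCL-xL (1 nM) with TQ5WS quencher-labelled PUMA peptide (400 nM); displacement by compound (11-point dilution) raises fluorescence. Buffer 10 mM HEPES, 150 mM NaCl, 0.05% Tween 20, pH 7.4, 5% DMSO; 2 h at 23° C, Ex 620/Em 680 nm. Ki derived from IC50.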

Data set [2] deals with MOLT-4 cells. Description: MOLT-4 cell viability using MTT assay. The class given is cell-based. The note with it: Homo sapiens, MOLT-4, 48 h, 48 h exposure. On the procedure:
MTT colorimetric assay is based on the mitochondrial reduction of tetrazolium salt by living cells.
Cells were cultured at 37° C. in a humidified atmosphere containing 5% CO2. […] At the end of incubation time, 15 μL of MTT solution (5 mg/ml) were added per well and the cells were incubated for another 4 h. […] IC50s were calculated using standard four-parametric curve fitting.

In data set [3] the test system is H146 cells. As to the kind of experiment: H146 cell viability using MTT assay. To be noted: Homo sapiens, NCI-H146, 48 h exposure. It is filed as cell-based. The essentials:
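Cells were cultured in RPMI 1640 with 10% heat-inactivated FBS, penicillin/streptomycin and 2 mM L-glutamine, then exposed 48 h to 9 concentrations (3.16-fold series, triplicates). MTT was added for 4 h and formazan solubilised overnight in SDS/HCl. OD was read at 540 nm and IC50 fitted with four-parameter curves.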
For orientation: Tetrazolium assays rely on reduction of a dye to a coloured formazan, in cell work by metabolically active cells.

Data set [4] has as its target GST(1-218)-(FACTOR_XA)-hsBCLXL(2-209) (Homo sapiens (Human), UniProt Q07817). As to the kind of experiment: Fluorescence polarisation assay. The class given is binding. The procedure: Fluorescence polarization measures the rotation of a fluorescing species in solution, the larger the molecule the more polarized the fluorescence emission.
(GST UniProtKB® primary accession number P08515 and BCLXL UniProtKB® primary accession number Q07817-1), • resulting in an increase in anisotropy. If a compound is added which competitively binds to the same site as the probe, thereby releasing it, anisotropy decreases due to the increased amount of free probe.
An 11-point serial dilution of each compound was prepared in DMSO, the final buffer conditions were 10 mM 4-(2-hydroxyethyl)-1-piperazineethanesulfonic acid [HEPES], 150 mM NaCl, 0.05% Tween 20, pH 7.4 and 5% DMSO. The final protein concentration in the assay was 20 nM with the fluorescent probe present at 10 nM. […] 1; 37 (WebServer issue): W441-W445.
For orientation: Fluorescence polarisation rises when a labelled molecule tumbles more slowly, as on binding a larger partner.

For data set [5], the system named is lymphoid malignancies. The note with it: clinical studies; cited from earlier work.
The subject of data set [6] is T-ALL patient derived xenograft models. To be noted: cited from earlier work.
Data set [7] concerns animal models of arthritis and lupus. To be noted: mice; cited from earlier work.
In data set [8] the test system is lymphocyte proliferation. To be noted: in vitro; cited from earlier work.
Data set [9] has as its system allogeneic T-cell. The note with it: in vitro; cited from earlier work.
Data set [10] has as its system pre-clinical models of T-ALL and different types of solid tumors. To be noted: cited from earlier work.
In data set [11] the test system is Molt-4. To be noted: xenograft model Molt-4; cited from earlier work.
The subject of data set [12] is circulating platelets. As to the kind of experiment: Pharmacodynamics: circulating platelets in MOLT-4-grafted mice. The class given is in vivo, female NOD SCID mice. The note with it: after treatment discontinuation (data not shown). The procedure:
For pharmacodynamics studies, when tumors reached the appropriate volume, mice were randomized (3 animals per group) using Easy stat software. […] Tumor samples were collected 6 h after dosing and lysed (10 mM HEPES pH 7.4, 142.5 mM KCl, 5 mM MgCl2, 1 mM EDTA, 1% NP40, protease and phosphatase inhibitors cocktails—Calbiochem). Cleared lysates were prepared for immunodetection of cleaved PARP and Caspase 3 by using the MSD apoptosis panel whole cell lysate kit (MSD) in 96-well plates according to manufacturer's instructions, and were analyzed on the QuickPlex SQ 120. Whole blood samples were analyzed on the Hematology Analyzer Coulter Ac⋅T diff (Beckman Coulter).

Data set [13] concerns MOLT-4 xenografts. As to the kind of experiment: Tumor regression study in MOLT-4 xenografts. The class given is in vivo, female NOD SCID mice. The note with it: 5 mg/kg IV. The procedure: The in vivo therapeutic and pharmacodynamic effects of Bcl-xL-targeting small molecules were determined in MOLT-4 T-cell Acute Lymphoblastic Leukemia (T-ALL) model upon intravenous (IV) or oral (PO) administration.
MOLT-4 cells (ATCC No. CRL-1582) were cultured in RPMI supplemented with 10% FBS. Cells were re-suspended in 50% matrigel (BD Biosciences) and 0.1 mL containing 5×10^6 cells was subcutaneously inoculated into the right flank of female NOD SCID mice (Charles River). For efficacy studies, when tumors reached the appropriate volume, mice were randomized (7 animals per group) using Easy stat software. […] Mice body weight was monitored three times a week and tumor size was measured using electronic calipers. Tumor volume was estimated by measuring the minimum and maximum tumor diameters using the formula: (minimum diameter)^2(maximum diameter)/2. The last day with at least half of control animals still present in the study (day 31), tumor growth inhibition was calculated using the formula: […]
Response was evaluated as follows: CR (Complete Response) if tumor size was <25 mm^3 for at least three consecutive measurements, PR (Partial Response) if tumor size was comprised between 25 mm^3 and half of the starting size for at least three consecutive measurements. Mice were sacrificed at the first measurement for which tumor volume exceeded 2000 mm^3 or at the first signs of animal health deterioration.

Broadly, the Ki is a dissociation constant, usually derived from enzyme kinetics or from competition with a known ligand. As usually defined, the IC50 is the concentration at which inhibition is half-maximal. Low values mean inhibition by little substance, high ones a need for much substance.

Chain of GST(1-218)-(FACTOR_XA)-hsBCLXL(2-209) (Q07817 other isoform, or with tags, fused parts or gaps): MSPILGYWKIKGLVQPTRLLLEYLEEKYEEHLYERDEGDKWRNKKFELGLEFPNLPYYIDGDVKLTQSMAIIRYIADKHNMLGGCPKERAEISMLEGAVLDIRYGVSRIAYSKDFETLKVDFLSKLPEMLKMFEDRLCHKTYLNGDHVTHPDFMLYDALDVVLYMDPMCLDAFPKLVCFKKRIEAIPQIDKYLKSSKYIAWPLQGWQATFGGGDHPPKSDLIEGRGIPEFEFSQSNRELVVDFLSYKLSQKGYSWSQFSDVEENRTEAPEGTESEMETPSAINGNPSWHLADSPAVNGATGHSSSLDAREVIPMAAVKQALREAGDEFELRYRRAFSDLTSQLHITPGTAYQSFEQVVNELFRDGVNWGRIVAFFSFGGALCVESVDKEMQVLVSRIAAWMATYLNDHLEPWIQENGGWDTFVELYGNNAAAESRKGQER
Chain of His-His-(EK)-hsBCLXL(2-197)[N197C] (Q07817 2-197 N197C): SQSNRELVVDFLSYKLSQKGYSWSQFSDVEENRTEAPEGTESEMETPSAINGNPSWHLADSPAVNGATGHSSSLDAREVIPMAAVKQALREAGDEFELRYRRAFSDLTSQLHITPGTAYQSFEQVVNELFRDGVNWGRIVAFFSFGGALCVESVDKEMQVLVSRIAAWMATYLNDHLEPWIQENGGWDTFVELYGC

`CN(C)CC#Cc1ccc(OCCCc2sc(N3CCCc4c3nnc(Nc3nc5ccccc5s3)c4C3CC3)nc2C(=O)O)c(F)c1` [Example 30, 2-{3-[(1,3-Benzothiazol-2-yl)amino]-4-cyclopropyl-5H,6H,7H,8H-pyrido[2,3-c]pyridazin-8-yl}-5-(3-{4-[3-(dimethylamino)prop-1-yn-1-yl]-2-fluorophenoxy}propyl)-1,3-thiazole-4-carboxylic acid]: the Ki in data set [1] was 0.0036 nM; in data set [4], below 1 nM. Moreover, the values for the IC50 in data set [2] and in data set [3] were 0.775 nM and 6.55 nM, respectively.
As to `Cc1c(Nc2nc3ccccc3s2)nnc2c1CCN2c1nc(C(=O)O)c(CCCOc2ccc(C#CCN(C)C)cc2F)s1` [Example 22, 2-{3-[(1,3-Benzothiazol-2-yl)amino]-4-methyl-5H,6H,7H-pyrrolo[2,3-c]pyridazin-7-yl}-5-(3-{4-[3-(dimethylamino)prop-1-yn-1-yl]-2-fluorophenoxy}propyl)-1,3-thiazole-4-carboxylic acid], the Ki in data set [1] is 0.025 nM; in data set [4], 3 nM. Further, the IC50 in [2] turned out to be 3.42 nM; in data set [3], 12.7 nM.
As for `CC1(C)CCC(c2ccc(Cl)cc2)=C(CN2CCN(c3ccc(C(=O)NS(=O)(=O)c4ccc(N[C@H](CCN5CCOCC5)CSc5ccccc5)c(S(=O)(=O)C(F)(F)F)c4)cc3)CC2)C1` [ABT-263], the antitumor activity result in data set [5] is reported as “objective antitumor activity”. In data set [6], the activity result is “promising activity”.
Take `CN(C)CC[C@H](CSc1ccccc1)Nc1ccc(S(=O)(=O)NC(=O)c2ccc(N3CCN(Cc4ccccc4-c4ccc(Cl)cc4)CC3)cc2)cc1[N+](=O)[O-]` [ABT-737]: the disease severity result in data set [7] is given as “significant decrease in disease severity”. Moreover, the lymphocyte proliferation entry in data set [8] was “potent inhibition of lymphocyte proliferation”. Further, in data set [6], the activity entry is reported as “promising activity”. Besides, the “allogeneic T-cell activation, proliferation, and cytotoxicity” value in data set [9] is “prevented allogeneic T-cell activation, proliferation, and cytotoxicity”.
On to `Cc1c(-c2ccc(N3CCc4cccc(C(=O)Nc5nc6ccccc6s5)c4C3)nc2C(=O)O)cnn1CC12CC3CC(CC(C3)C1)C2` [Example A-1331852], for which the in vivo activity result in data set [10] is given as “exhibited in vivo activity”. Besides, the “in vitro and in vivo activity” value in data set [11] was “in vitro and in vivo activity”.
Turning to `Cc1c(Nc2nc3ccccc3s2)nnc2c1CCCN2c1nc(C(=O)O)c(CCCOc2ccc(CN)cc2F)s1` [Example 35, 5-{3-[4-(Aminomethyl)-2-fluorophenoxy]propyl}-2-{3-[(1,3-benzothiazol-2-yl)amino]-4-methyl-5H,6H,7H,8H-pyrido[2,3-c]pyridazin-8-yl}-1,3-thiazole-4-carboxylic acid], the values for the Ki in [1] and in [4] were 0.0077 nM and below 1 nM, respectively. Moreover, the half-inhibitory concentration (IC50) in [2] worked out at 30.2 nM; in data set [3] it was 62.8 nM.
Consider `CN(C)CC#Cc1ccc(OCCCc2sc(N3CCc4cccc(C(=O)Nc5nc6ccccc6s5)c4C3)nc2C(=O)O)c(F)c1` [Example A-1155463], for which the in vivo activity result in data set [10] is on record as “exhibited in vivo activity”.
For the compound `Cc1c(Nc2nc3ccccc3s2)nnc2c1ccn2-c1ccc(-c2cnn(CC34CC5CC(CC(C5)C3)C4)c2C)c(C(=O)O)n1` [Example 23], the figures for the Ki in data set [1] and in data set [4] were 0.051 nM and 1.1 nM, respectively. Further, the IC50 was found to be 0.948 nM in [2] and 2.77 nM in data set [3].
Turning to `Cc1c(Nc2nc3ccccc3s2)nnc2c1CCCN2c1ccc(-c2cnn(CC34CC5CC(CC(C5)C3)C4)c2C)c(C(=O)O)n1` [Example 24], the platelets loss recovery entry in data set [12] is “platelets loss was recovered after treatment discontinuation”. Further, the Ki in data set [1] is 0.008 nM; in [4], below 1 nM. In addition, in data set [13] (Q3D6), the “% CR” value is recorded as 0%. The “% PR” value in data set [13] (Q3D6) was found to be 71.4%. Also, in data set [13] (Q3D6, day 31), the “% TGI (d31)” value is 78.7%. The same compound gave an IC50 in data set [3] of 32.7 nM.
With `Cc1c(Nc2nc3ccccc3s2)nnc2c1CCCCN2c1nc(C(=O)O)c(CCCOc2ccc(C#CCN(C)C)cc2F)s1` [Example 31, 2-{3-[(1,3-Benzothiazol-2-yl)amino]-4-methyl-5H,6H,7H,8H,9H-pyridazino[3,4-b]azepin-9-yl}-5-(3-{4-[3-(dimethylamino)prop-1-yn-1-yl]-2-fluorophenoxy}propyl)-1,3-thiazole-4-carboxylic acid], the Ki is 0.0082 nM in data set [1] and below 1 nM in [4]. In addition, the IC50 in data set [2] turned out to be 14.8 nM; in data set [3], 88.2 nM.

The values above are taken from patent US12570648B2, “6,7-dihydro-5H-pyrido[2,3-c]pyridazine derivatives and related compounds as Bcl-xL protein inhibitors and pro-apoptotic agents for treating cancer” (LES LABORATOIRES SERVIER, priority 2019, dated 2026).
